Values after ≈ are worked out from the molar mass of the structure shown.
Experiments:
physchem [1] = test: physchem
Description: Compound was evaluated for its solubility in water

Oryctolagus cuniculus [2] = organism: Oryctolagus cuniculus; details: rabbit, in vivo
Description: Evaluated for first order rate constant (Kin) for transcorneal penetration in anesthetized rabbits

physchem [3] = details: buffer
Description: Evaluated for sulfonamide pKa, free acid water solubility

Oryctolagus cuniculus [4] = organism: Oryctolagus cuniculus; test: Evaluated for effect on intraocular pressure(IOP) in rabbit after 1 hour; type: functional, Eye
Oryctolagus cuniculus [5] = organism: Oryctolagus cuniculus
[6] = octanol/water, pH 7.4
Description: Evaluated for lipid solubility measured as partition coefficient at a pH 7.4 (CHCl3/buffer)

Description for Carbonic anhydrase: Evaluated for its activity against carbonic anhydrase (CA) in anesthetized rabbits

I50 (Carbonic anhydrase) [nM]	Compound	Effect (Oryctolagus cuniculus [5]) [mmHg]	other results
	Cn1nc(S(N)(=O)=O)s/c1=N\C(=O)C(F)(F)F		solubility (physchem [1]; water): 8 mM (≈ 2320 µg/mL); Kin (Oryctolagus cuniculus [2]): 0.014 h⁻¹; pKa (physchem [3]): 6.6; Effect (Oryctolagus cuniculus [4]): -3.1 mmHg
20	CCn1c(=O)nc2sc(S(N)(=O)=O)nn2c1=O	0	
37	NS(=O)(=O)c1nn2c(O)cc(=O)nc2s1		
18	NS(=O)(=O)c1nn2c(=O)n(CCCl)c(=O)nc2s1	0	
50	COc1cc(=O)nc2sc(S(N)(=O)=O)nn12	0	
50	NS(=O)(=O)C1=NN2C(=NC(=O)NS2(=O)=O)S1	0	
20	NS(=O)(=O)c1nn2c(=O)[nH]c(=O)nc2s1	0	solubility (physchem [1]; water): 4 mM (≈ 997 µg/mL); pKa (physchem [3]): 8.3
14	NS(=O)(=O)C1=NN2CCS(=O)(=O)N=C2S1	0	
20	Cn1c(=O)nc2sc(S(N)(=O)=O)nn2c1=O	-1	
	CC(=O)/N=c1/sc(S(N)(=O)=O)nn1C [METHAZOLAMIDE]	-0.6	solubility (physchem [1]; buffer): 5 mM (≈ 1180 µg/mL); Kin (Oryctolagus cuniculus [2]): 0.006 h⁻¹; log D [6]: 0.06
